# Laboratory results taken from patent US10130633B2, “Compounds” (BAYER PHARMA AKTIENGESELLSCHAFT, priority 2013, dated 2018).
# pIC50: −log10 of the molar value. Structures can show the parent of a compound that is named as a salt.
# Columns and labels:
# [1] = test system: HCT116 FOP control reporter cell line; test: HCT116 FOPFlash control reporter assay (FOP control vector, non-functional TCF elements); type: cell-based; conditions: HCT116 FOP control reporter cells, 36 hours incubation, luciferase expression
# Text: In a parallel approach, HCT116 cells were cotransfected with the FOP control vector and pcDNA3. The FOP vector is identical to the TOP construct, but it contains instead of functional TCF elements a randomized, non-functional sequence. For this transfection a stable transfected cell line was generated as well.
# [2] = test system: constitutive active colorectal cancer cell (CRC) Wnt pathway; test: HCT116 TOPFlash cellular reporter assay (Super TopFlash luciferase), constitutive active Wnt pathway; type: cell-based; conditions: HCT116 TOP reporter cells, 36 hours incubation, luciferase expression
# Procedure: In order to discover and characterize small molecules which inhibit the constitutive active colorectal cancer cell (CRC) Wnt pathway, a cellular reporter assay was employed. […] Stable transfectants were generated by cotransfection with pcDNA3 and selection of stable transfected cells with 1 mg/ml G418.
Compound,"pIC50 ([1]; Homo sapiens, HCT-116, 36 h)","pIC50 ([2]; Homo sapiens, HCT-116, 36 h)",pIC50 [1],pIC50 [2]
"COc1ccc(NC(=O)c2ccc(-c3ccc(F)cc3)s2)cc1NC(=O)CN1CCOCC1 [Example 36, 5-(4-fluorophenyl)-N-{4-methoxy-3-[(morpholin-4-ylacetyl)amino]phenyl}thiophene-2-carboxamide]",4.66,5.92,–,–
"O=C(CN1CCOCC1)Nc1cc(C(=O)Nc2nnc(-c3cccc(F)c3)s2)ccc1OC(F)(F)F [Example 153, N-[5-(3-fluorophenyl)-1,3,4-thiadiazol-2-yl]-3-[(morpholin-4-ylacetyl)amino]-4-(trifluoromethoxy)benzamide]",4.52,6.88,–,–
"O=C(CN1CCOCC1)Nc1cc(C(=O)Nc2nnc(-c3ccc(F)cc3)s2)ccc1OC(F)(F)F [Example 99, N-[5-(4-fluorophenyl)-1,3,4-thiadiazol-2-yl]-3-[(morpholin-4-ylacetyl)amino]-4-(trifluoromethoxy)benzamide]",5.03,6.03,–,–
"CC(C(=O)Nc1cc(C(=O)Nc2nnc(-c3ccccc3)s2)ccc1OC(F)(F)F)N1CCN(C2CC2)CC1 (stereo not drawn) [Example 234, 3-{[2-(4-cyclopropylpiperazin-1-yl)propanoyl]amino}-N-(5-phenyl-1,3,4-thiadiazol-2-yl)-4-(trifluoromethoxy)benzamide]",4.39,6.20,–,–
"CC1CN(C)CCN1CC(=O)Nc1cc(C(=O)Nc2ccc(-c3ccccc3F)nc2)ccc1OC(F)(F)F (stereo not drawn) [Example 165, 3-{[(2,4-dimethylpiperazin-1-yl)acetyl]amino}-N-[6-(2-fluorophenyl)pyridin-3-yl]-4-(trifluoromethoxy)benzamide]",5.14,7.29,–,–
"O=C(CN1CCOCC1)Nc1cc(NC(=O)c2noc(-c3ccccc3)n2)ccc1OC(F)(F)F [Example 121, N-{3-[(morpholin-4-ylacetyl)amino]-4-(trifluoromethoxy)phenyl}-5-phenyl-1,2,4-oxadiazole-3-carboxamide]",≤ 4.30,6.08,–,–
"CC1CN(CC(=O)Nc2cc(C(=O)Nc3ccc(-c4ccccc4F)nc3)ccc2OC(F)(F)F)CCN1C (stereo not drawn) [Example 137, 3-{[(3,4-dimethylpiperazin-1-yl)acetyl]amino}-N-[6-(2-fluorophenyl)pyridin-3-yl]-4-(trifluoromethoxy)benzamide]",4.70,6.57,–,–
"O=C(CN1CCN(CC(F)(F)F)CC1)Nc1cc(C(=O)Nc2ccc(-c3ccccc3F)nc2)ccc1OC(F)(F)F [Example 233, N-[6-(2-fluorophenyl)pyridin-3-yl]-3-({[4-(2,2,2-trifluoroethyl)piperazin-1-yl]acetyl}amino)-4-(trifluoromethoxy)benzamide]",≤ 4.30,6.01,–,–
"CC(C(=O)Nc1cc(C(=O)Nc2ccc(-c3cc(F)cc(F)c3)nc2)ccc1OC(F)(F)F)N1CCOCC1 (stereo not drawn) [Example 246, N-[6-(3,5-difluorophenyl)pyridin-3-yl]-3-{[2-(morpholin-4-yl)propanoyl]amino}-4-(trifluoromethoxy)benzamide]",–,–,4.56,7.32
"O=C(Nc1ccc(-c2ccccc2F)nc1)c1ccc(F)c(NC(=O)C2(N3CCOCC3)CC2)c1 [Example 77, 4-fluoro-N-[6-(2-fluorophenyl)pyridin-3-yl]-3-({[1-(morpholin-4-yl)cyclopropyl]carbonyl}amino)benzamide]",4.85,6.43,–,–
"O=C(CN1CCOCC1)Nc1cc(C(=O)Nc2ncc(-c3ccccc3)s2)ccc1C(F)(F)F [Example 12, 3-[(morpholin-4-ylacetyl)amino]-N-(5-phenyl-1,3-thiazol-2-yl)-4-(trifluoromethyl)benzamide]",≤ 4.30,6.28,–,–
"CN1CCN(C2(C(=O)Nc3cc(C(=O)Nc4nnc(-c5ccccc5)s4)ccc3OC(F)F)CC2)CC1 [Example 39, 4-(difluoromethoxy)-3-({[1-(4-methylpiperazin-1-yl)cyclopropyl]carbonyl}amino)-N-(5-phenyl-1,3,4-thiadiazol-2-yl)benzamide]",4.49,7.47,–,–
"CN1CCN(C2(C(=O)Nc3cc(C(=O)Nc4nnc(-c5ccccc5)s4)ccc3OC(F)(F)F)CC2)CC1 [Example 52, 3-({[1-(4-methylpiperazin-1-yl)cyclopropyl]carbonyl}amino)-N-(5-phenyl-1,3,4-thiadiazol-2-yl)-4-(trifluoromethoxy)benzamide]",≤ 4.30,7.58,–,–
"O=C(CN1CCOCC1)Nc1cc(C(=O)Nc2nnc(-c3ccccc3)s2)ccc1OCC1CC1 [Example 268, 4-(cyclopropylmethoxy)-3-[(morpholin-4-ylacetyl)amino]-N-(5-phenyl-1,3,4-thiadiazol-2-yl)benzamide]",≤ 4.30,6.44,–,–
"CC(C(=O)Nc1cc(NC(=O)c2ccc(-c3cc(F)cc(F)c3)nc2)ccc1OC(F)(F)F)N1C[C@@H]2C[C@H]1CO2 (stereo partly drawn) [Example 198, 6-(3,5-difluorophenyl)-N-[3-({2-[(1S,4S)-2-oxa-5-azabicyclo[2.2.1]hept-5-yl]propanoyl}amino)-4-(trifluoromethoxy)phenyl] nicotinamide]",4.82,6.84,–,–
"CN1CCN(CC(=O)Nc2cc(C(=O)Nc3nnc(-c4cccc(C#N)c4)s3)ccc2OC(F)(F)F)CC1 [Example 267, N-[5-(3-cyanophenyl)-1,3,4-thiadiazol-2-yl]-3-{[(4-methylpiperazin-1-yl)acetyl]amino}-4-(trifluoromethoxy)benzamide]",≤ 4.30,6.44,–,–
"CC(C(=O)Nc1cc(NC(=O)c2ccc(-c3cccc(F)c3)nc2)ccc1OC(F)(F)F)N1CCOCC1 (stereo not drawn) [Example 190, 6-(3-fluorophenyl)-N-[3-{[2-(morpholin-4-yl)propanoyl]amino}-4-(trifluoromethoxy)phenyl] nicotinamide]",–,–,5.02,7.06
"C[C@@H]1CN(C)CCN1CC(=O)Nc1cc(C(=O)Nc2ccc(-c3ccccc3F)nc2)ccc1OC(F)(F)F [Example 161, 3-({[(2R)-2,4-dimethylpiperazin-1-yl]acetyl}amino)-N-[6-(2-fluorophenyl)pyridin-3-yl]-4-(trifluoromethoxy)benzamide]",5.00,6.49,–,–
"CN1C2CCC1CN(CC(=O)Nc1cc(C(=O)Nc3ccc(-c4ccccc4F)nc3)ccc1OC(F)(F)F)C2 [Example 166, N-[6-(2-fluorophenyl)pyridin-3-yl]-3-{[(8-methyl-3,8-diazabicyclo[3.2.1]oct-3-yl)acetyl]amino}-4-(trifluoromethoxy)benzamide]",5.41,6.83,–,–
"C[C@@H](C(=O)Nc1cc(C(=O)Nc2ccc(-c3ccc(N(C)C)cc3)nc2)ccc1OC(F)(F)F)N1CCOCC1 (single isomer, unassigned) [Example 116, N-{6-[4-(dimethylamino)phenyl]pyridin-3-yl}-3-{[(2S)-2-(morpholin-4-yl)propanoyl]amino}-4-(trifluoromethoxy)benzamide or N-{6-[4-(dimethylamino)phenyl]pyridin-3-yl}-3-{[(2R)-2-(morpholin-4-yl)propanoyl]amino}-4-(trifluoromethoxy)benzamide]",–,–,5.09,7.08
"Cc1ccc(-c2nnc(NC(=O)c3ccc(OC(F)(F)F)c(NC(=O)CN4CCN(C)CC4)c3)s2)cc1 [Example 102, N-[5-(4-methylphenyl)-1,3,4-thiadiazol-2-yl]-3-{[(4-methylpiperazin-1-yl)acetyl]amino}-4-(trifluoromethoxy)benzamide]",4.71,6.34,–,–
"CC(C(=O)Nc1cc(NC(=O)c2ccc(-c3cc(F)cc(F)c3)nc2)ccc1OC(F)(F)F)N1CC2CCC(C1)O2 (stereo not drawn) [Example 202, 6-(3,5-difluorophenyl)-N-[3-{[2-(8-oxa-3-azabicyclo[3.2.1]oct-3-yl)propanoyl]amino}-4-(trifluoromethoxy)phenyl] nicotinamide]",–,–,5.24,6.70
"CC(C(=O)Nc1cc(C(=O)Nc2ccc(-c3ccccc3F)nc2)ccc1OC(F)(F)F)N1CCN(C2CC2)CC1 (stereo not drawn) [Example 250, 3-{[2-(4-cyclopropylpiperazin-1-yl)propanoyl]amino}-N-[6-(2-fluorophenyl)pyridin-3-yl]-4-(trifluoromethoxy)benzamide]",–,–,4.51,6.72
"CC1CN(C)CCN1CC(=O)Nc1cc(C(=O)Nc2nnc(-c3ccccc3)s2)ccc1OC(F)(F)F (stereo not drawn) [Example 167, 3-{[(2,4-dimethylpiperazin-1-yl)acetyl]amino}-N-(5-phenyl-1,3,4-thiadiazol-2-yl)-4-(trifluoromethoxy)benzamide]",≤ 4.30,6.16,–,–
"COc1ccccc1-c1nnc(NC(=O)c2ccc(OC(F)(F)F)c(NC(=O)CN3CCN(C)CC3)c2)s1 [Example 101, N-[5-(2-methoxyphenyl)-1,3,4-thiadiazol-2-yl]-3-{[(4-methylpiperazin-1-yl)acetyl]amino}-4-(trifluoromethoxy)benzamide]",≤ 4.30,5.49,–,–
"CC(C(=O)Nc1cc(NC(=O)c2ccc(-c3cc(F)cc(F)c3)nc2)ccc1OC(F)(F)F)N1CCOCC1 (stereo not drawn) [Example 187, 6-(3,5-difluorophenyl)-N-[3-{[2-(morpholin-4-yl)propanoyl]amino}-4-(trifluoromethoxy)phenyl] nicotinamide]",–,6.76,4.38,–
"COCc1ccc(C(=O)Nc2nnc(-c3ccccc3C)s2)cc1NC(=O)C1(N2CCN(C)CC2)CC1 [Example 258, 4-(methoxymethyl)-N-[5-(2-methylphenyl)-1,3,4-thiadiazol-2-yl]-3-({[1-(4-methylpiperazin-1-yl)cyclopropyl]carbonyl}amino)benzamide trifluoroacetate (1:1)]",4.62,7.34,–,–
